Data taken from publication PMC10733463, “Berberine-microbiota interplay: orchestrating gut health through modulation of the gut microbiota and metabolic transformation into bioactive metabolites” (Frontiers in Pharmacology, 2023).
Read-outs that look alike come from different tables or passages of the source.

What was measured:
[1] = system: Anaerostipes butyraticus (35–7); settings: 35-7, chicken, 10 µg/mL, pH 6
Method: (§1) Six strains were tested for their ability to convert berberine into berberine-demethylated metabolites. […] Strains were sub-cultured overnight in M2GSC medium pH 6. The next day, caecal content from a 3-week-old broiler chicken was sampled in anaerobic conditions and 1:1,000 diluted in M2GSC medium pH 6 containing 10 μg/mL berberine. Caecal mixtures were enriched with 1:100 diluted overnight cultures of single bacteria, or with M2GSC (control), and incubated in a 24-well plate, for 48 h. […] Samples were collected and processed as described before. Each bacterial strain was tested in triplicate at 37°C–40°C under anaerobic conditions.
(§2) The UPLC instrument consisted of an Acquity H-Class Quaternary Solvent Manager and an Acquity FTN Sample Manager (Waters, Berchem, Belgium). For chromatographic separation, an Acquity UPLC® HSS T3 column (1.8 µm, 100 mm × 2.1 mm i.d.) was used, protected by a precolumn of the same type (VanGuardTM, 5 mm × 2.1 mm i.d.), both from Waters. […] The column temperature was maintained at 25°C. The autosampler temperature was set at 10°C. The UPLC effluent was sent from 1.2 min to 9.5 min by use of a divert valve to a Xevo TQ-S® triple quadrupole mass spectrometer from Water, equipped with an ESI ion source operating in the positive ionization mode from. The UPLC-MS/MS analysis was run under control of MassLynx software (v4.1), which was used for subsequent data processing as well. For the injection of 1/5 diluted intestinal content samples (see section Preparation of intestinal content samples (ileum and caecum)), the divert valve was used in addition from 7.1 min to 8.4 min to deviate the high amount of berberine and associated IS berberine-d6 eluting in that time window from the UPLC column directly to the waste, rather than to the MS detector to avoid oversaturation of the instrument, influencing subsequent sample extract injections at well. Operating conditions for the ESI source used in the positive ionization mode were optimized by direct infusion of all individual components in combination with the mobile phase at 50% A/50% B delivered at a flow rate of 0.3 mL/min. The following tune parameters were used for detection of all components: capillary voltage, 3 kV, cone voltage, 10 V, source offset, 50 V, source temperature, 150°C, desolvation temperature, 500°C, desolvation gas flow, 800 L/h, cone gas flow, 150 L/h, collision gas flow, 0.2 mL/min, ion energy 1 and 2, 0.5, LM 1 and LM 2 resolution, 3, HM 1 and HM 2 resolution, 15. Components were detected in MS/MS mode using component specific MRM (Multiple Reaction Monitoring) transitions (Supplementary Table S1). Since a commercial standard of thalifendine was not available, MS/MS detection parameters and calibration of berberrubine were used for the detection and quantification of thalifendine, which is a reasonable approach, since both compounds are isomers. No commercial reference standards were available for phase II metabolites, therefore “calculated” MRM transitions were defined as follows: [M + -Gluc] > M+ for glucuronide forms and [M + -SO3] > M+ for sulfate forms, where the loss of glucuronic acid or sulfate corresponded to a mass shift of 176 Da or 80 Da respectively. Phase II metabolites were quantified relatively using the berberine calibration curve ([Wang et al., 2017a]; [Kwon et al., 2020]).

B. coccoides (DSM 935) [2] = settings: DSM 935, chicken, 10 µg/mL, pH 6
Method: as §1, §2

[3] = system: Blautia hansenii (DSM 20583); settings: DSM 20583, chicken, 10 µg/mL, pH 6
Method: as §1, §2

Blautia luti (DSM 14534) = settings: DSM 14534, chicken, 10 µg/mL, pH 6
Method: as §1, §2

[4] = system: Eubacterium limosum (LMG 28910); settings: LMG 28910, chicken, 10 µg/mL, pH 6
Method: as §1, §2

caecal microbiota = assay: SCFA quantification in caecal microbiota cultures supplemented with berberine or berberrubine; format: cell-based, broiler chicken; settings: 24 h
Method: As berberine and its demethylated metabolites correlated with SCFAs in vivo, their ability to directly influence SCFA metabolism was assessed in vitro. […] Cultures were centrifuged at 3,724 g for 5 min 1 mL 1:2 diluted supernatant in Milli-Q water was used for SCFA analysis. Acetate, propionate and butyrate were quantified using the GC-FID method described by ([De […] et al., 2010]). This method involves the extraction of SCFA from samples with diethyl ether after the addition of 2-methyl hexanoic acid as an internal standard.

B. coccoides (DSM 935) [5] = settings: Blautia coccoides, 10 µg/mL, pH 6
[6] = rats, 2021, cited from earlier work; for Total recovery in feces: ref Ma et al., 2013, Feng et al.
[7] = oral administration of berberine, ref Feng et al.

With `COc1ccc2cc3[n+](cc2c1O)CCc1cc2c(cc1-3)OCO2` [Berberrubine, berberrubine chloride] the “Log2(fold change) of metabolite response at 48 h, culture with bacteria over control (berberine-medium + microbiota)” value [1] was 0.03, the “Log2(fold change) of metabolite response at 48 h, culture with bacteria over control (berberine-medium + microbiota)” value (B. coccoides (DSM 935) [2]) was -1.64 and the “Log2(fold change) of metabolite response at 48 h, culture with bacteria over control (berberine-medium + microbiota)” value [3] was -0.15. For the same molecule, the “Log2(fold change) of metabolite response at 48 h, culture with bacteria over control (berberine-medium + microbiota)” value (Blautia luti (DSM 14534)) was -1.71, the “Log2(fold change) of metabolite response at 48 h, culture with bacteria over control (berberine-medium + microbiota)” value [4] was -0.40 and the “Concentrations of acetate, butyrate and propionate in caecal microbiota cultures” value (caecal microbiota; higher concentration (2.5 µM)) was “increased”. For the same molecule, the “Log2(fold change) of metabolite response at 48 h, B. coccoides pure culture over berberine-medium” value (B. coccoides (DSM 935) [5]) was 1.96, the Excretion in bile [6, 7] was 2.6% and the Excretion in feces [6, 7] was 18.6%. For the same molecule, the Excretion in urine [6, 7] was 1.2%, the “Total recovery in feces” value ([6]; oral berberine 48.2 mg/kg) was 18.6% and the “Total recovery in feces” value ([6]; oral berberine 200 mg/kg) was 1.14%.
In the case of `COc1cc2c(cc1O)CC[n+]1cc3c(OC)c(OC)ccc3cc1-2` [Jatrorrhizine, Jatrorrhizine chloride], the “Log2(fold change) of metabolite response at 48 h, culture with bacteria over control (berberine-medium + microbiota)” value [1] is reported as -0.05, the “Log2(fold change) of metabolite response at 48 h, culture with bacteria over control (berberine-medium + microbiota)” value (B. coccoides (DSM 935) [2]) is reported as -0.23 and the “Log2(fold change) of metabolite response at 48 h, culture with bacteria over control (berberine-medium + microbiota)” value [3] is reported as -0.06. The “Log2(fold change) of metabolite response at 48 h, culture with bacteria over control (berberine-medium + microbiota)” value (Blautia luti (DSM 14534)) was -0.36, the “Log2(fold change) of metabolite response at 48 h, culture with bacteria over control (berberine-medium + microbiota)” value [4] was 0.11 and the “Log2(fold change) of metabolite response at 48 h, B. coccoides pure culture over berberine-medium” value (B. coccoides (DSM 935) [5]) was -2.05.
For `COc1ccc2cc3[n+](cc2c1OC)CCc1cc2c(cc1-3)OCO2` [Berberine, Berberine chloride], the “SCFA production in caecal microbiota cultures” value (caecal microbiota; 25, 2.5 µM) is listed as “did not significantly affect”, the “Total recovery in feces” value ([6]; oral berberine 48.2 mg/kg) is listed as 8.4% and the “Total recovery in feces” value ([6]; oral berberine 200 mg/kg) is listed as 19.05%.
